According to US20140161827A1, “COMPOSITIONS AND METHODS FOR TREATING CANCER” (University of Virginia Patent Foundation, priority 2011, published 2014):
pIC50: −log10 of the molar value. Where a SMILES comes first, the peptide text is derived from it. The star is where a group is joined. Cbz = O=C(OCc1ccccc1)*; CH2F = FC*

What was measured:
LTED cells [1] = experiment: Levels of apoptotic proteins in treated LTED cells (immunoblot of cytosolic and mitochondrial fractions, immunoprecipitation); type: cell-based, human; settings: for Mcl-1 level: FTS 75 μM 0-48 h (by 24 h) or estradiol 0-48 h; for Bim level (BimEL, BimL): FTS 75 μM 0-48 h or estradiol 0-48 h (early time points 4, 8 h); for Survivin level: FTS 75 μM (from 8 to 16 h, undetectable at 24 and 48 h) or estradiol; for Phospho JNK level: FTS 75 μM over 48 hours or estradiol; for Cytochrome c level in the cytosol / Smac (Smac/Diablo) level in the cytosol: FTS at 24 and 48 h, estradiol by 48 h
Experimental: The inventors herein initially examined the class of proteins which influences MOMP (mitochondrial outer membrane pore) formation, a key component of the intrinsic pathway of apoptosis. Pro-apoptotic members such as Bax, Bim, and Bak, promote the release of Cytochrome c from the mitochondria, whereas anti-apoptotic members, such as Bcl-2 and Mcl-1, prevent release. The balance of pro-apoptotic and anti-apoptotic Bcl-2 proteins therefore influences the fate of the cell. LTED cells were treated with 75 μM FTS for 0, 4, 8, 16, 24 and 48 h with examination of cytosolic fractions (FIG. 1A).
To ascertain whether Bax was activated in FTS-treated LTED cells, Bcl-2 was immunoprecipitated and then probed for Bim and Bax (See FIG. 1B). Probed cell extracts were probed with the use of an antibody that recognizes only the conformationally altered Bax protein. […] The pro-apoptotic effect of Bim is predominantly through its binding to Bcl-2 that ablates Bcl-2 pro-survival function. As shown in FIG. 1B we found the interaction between Bim and Bcl-2 is increased, whereas the interaction between Bax and Bcl-2 was reduced. As evidence of the exodus of proteins through mitochondrial membrane pores, Cytochrome c and Smac levels in the cytosol were increased at 24 and 48 h, times when Mcl-1 was decreased and Bim, increased (FIG. 1A). […] After showing these effects on MOMP, other key factors involved in apoptosis were examined.
Cells were treated with estradiol for 0, 2, 4, 8, 24 and 48 h and cytosolic fractions prepared. […] Mitochondrial fractions (FIG. 1D, right panel), confirmed the increase in Bim isoforms. […] Because Bim appeared to be critical for estradiol-mediated apoptosis, we carried out a titration of E2, probed for Bim and found it increased over time (See FIG. 1E).
Cells grown in 100 mm dishes were washed with cold PBS and extracted with 1 ml lysis buffer (50 mM Tris-HCl, 150 mM NaCl, 5 mM EDTA, 25 mM NaF, 2 mM NaVO4, 5% glycerol, 1% Triton X-100, 10 μg/ml leupeptin, aprotinin, and pepstatin). Samples were incubated on ice for 30 min, sonicated, and centrifuged at 14,000 rpm for 10 min at 4° C. Supernatants containing 0.5 mg total protein were incubated with antibody against the target protein at 4° C. overnight before addition of 40 μl Protein G beads (Invitrogen) and continued incubation at 4° C. for 2 h. The protein G beads with immunocomplex were centrifuged at 14,000 rpm for 20 sec. The supernatant was carefully removed. The beads were washed twice with 1 ml buffer II (20 mM MOPS, 2 mM EGTA, 5 mM EDTA, 25 mM NaF, 40 mM β-glycerophosphate, 10 mM sodium pyrophosphate, 2 mM NaVO4, 0.5% Triton X-100, 1 mM PMSF, 10 μg/ml leupeptin, aprotinin, and pepstatin) and then boiled in 50 μl 2× Laemmli's buffer. The samples were subjected to electrophoresis in 10% SDS polyacrylamide gel followed by immunoblotting.

MCF-7-5C cells = experiment: Apoptosis in MCF-7-5C cells, E2 and T-DM-1 alone and in combination; type: cell-based; settings: agent alone
[2] = tested on: LTED (long-term estrogen deprived) cells; experiment: Growth inhibition and drug interaction assay (nuclei count, combination index), LTED; type: cell-based, human
Experimental: When the combination index is equivalent to one (CI=1), this means the two drugs work together in an additive manner. […] The effective dose one (D1) is then plotted on the x-axis and the effective dose two (D2) was plotted on the y-axis. The plotting of the effective dose (ED) can be is done at Fa equals 0.5, 0.75, 0.9 and 0.95. This generates the isobologram.
Cells were plated in six-well plates at a density of 60,000 cells per well. Two days later, the cells were treated in triplicate as described in the descriptions of the figures. At the end of treatment, cells were rinsed twice with saline. Nuclei were prepared by sequential addition of 1 mL HEPES-MgCl2 solution (0.01 mol/L HEPES and 1.5 mmol/L MgCl2) and 0.1 mL ZAP solution [0.13 mol/L ethylhexadecyldimethylammonium bromide in 3% glacial acetic acid (v/v)] and were counted using a Coulter counter (BeckmanCoulter, Inc., Fullerton, Calif.). […] The combination index and values with a mean and standard deviation were calculated using the Monte Carlo simulation using the computer software CalcuSyn from Biosoft (Cambridge, U.K.) [10].
The nature of the interaction between the agents was evaluated by the combination index method of Chou and Talalay [8,9]. […]
Where D is the dose that yields x % growth inhibition and α=0 for mutually exclusive drugs and α=1 for mutually non-exclusive drugs. Synergy as calculated and defined by the CalcuSyn software as a CI<1; additivity is CI=1 and antagonism is CI>1[10].

LTED cells [3] = experiment: FTS-induced apoptosis and caspase involvement in LTED cells; type: cell-based, human
Experimental: FTS has been reported to invoke cell death through caspase activation in non-breast tissues. To address whether FTS was promoting death of breast cancer cells by activation of caspases LTED cells were treated with either vehicle, FTS, or FTS in the presence of increasing concentrations of the pan-caspase inhibitor z-VAD-fmk (See FIG. 1C top panel). […] Caspase-8 activity does appear to increase; however this is not inhibited by Z-IETD-FMK. See FIG. 2, showing a time course bar graph (2A) and a cell viability versus concentration curve (2B) displaying (FIG. 2A) the effect of FTS and curcumin in combination on wild type MCF-7 cells; and (FIG. 2B) the effect of FTS alone or in combination with curcumin on MCF-7 cell viability.

MCF-7 cells = experiment: Growth inhibition and drug interaction assay (nuclei count, combination index), MCF-7; type: cell-based; settings: Homo sapiens, MCF7, FIG. 3, read-out: concentration with 50% inhibitory effect
Text: We examined some of these agents in both the non-adapted cell lines (See FIGS. 4, 6, 8) and adapted cell lines (See FIGS. 5, 7, 9). We treated breast cancer cells with increasing concentrations of the individual drugs followed by testing with their combinations. We determined the number of cells that were killed (fraction affected, fa) and the number of cells that were not affected by the drug (fraction unaffected, fu) (See FIG. 4). Then dose effect curves are transformed into their corresponding linear forms by the median-effect plot where y=log(fa/fu) vs. x=log (D)[8,34]. From the median effect plot the combination index (CI) can be determined. […]
Cells were plated in six-well plates at a density of 60,000 cells per well. […] Nuclei were prepared by sequential addition of 1 mL HEPES-MgCl2 solution (0.01 mol/L HEPES and 1.5 mmol/L MgCl2) and 0.1 mL ZAP solution [0.13 mol/L ethylhexadecyldimethylammonium bromide in 3% glacial acetic acid (v/v)] and were counted using a Coulter counter (BeckmanCoulter, Inc., Fullerton, Calif.). […] The combination index and values with a mean and standard deviation were calculated using the Monte Carlo simulation using the computer software CalcuSyn from Biosoft (Cambridge, U.K.).
The nature of the interaction between the agents was evaluated by the combination index method of Chou and Talalay. […]

[4] = FTS-treated LTED cells, Bcl-2 immunoprecipitation

Compound	Mcl-1 level (LTED cells [1]; LTED cells)	Bim level (BimEL, BimL) (LTED cells [1]; LTED cells)	Survivin level (LTED cells [1]; LTED cells)	Phospho JNK level (LTED cells [1]; LTED cells)	Cytochrome c level in the cytosol (LTED cells [1]; LTED cells)	Smac (Smac/Diablo) level in the cytosol (LTED cells [1]; LTED cells)	induction of apoptosis (MCF-7-5C cells)	other results
C[C@]12CC[C@@H]3c4ccc(O)cc4CC[C@H]3[C@@H]1CC[C@@H]2O [E2, 17β-Estradiol]	decreased	increased	not	increased	released into the cytosol	released into the cytosol	induced apoptosis	Bok level (LTED cells [1]; LTED cells, titration of E2): increased in a concentration-dependent manner
CC(C)=CCC/C(C)=C/CC/C(C)=C/CSc1ccccc1C(=O)O [FTS, S-trans, trans-Farnesylthiosalicyclic acid]	decrease	increase	decreased	increased	increased	increased	–	Apoptosis inducing factor (AIF) in the cytosol (LTED cells [1]; FTS-treated LTED cells): appeared in the cytosol only at 48 h; interaction between Bax and Bcl-2 (LTED cells [1]; [4]): reduced; interaction between Bim and Bcl-2 (LTED cells [1]; [4]): increased; Bax activation (conformationally altered Bax) (LTED cells [1]; FTS-treated LTED cells, conformation-specific antibody): underwent a conformational change; Bcl-2 level (LTED cells [1]; LTED cells, FTS 75 μM 0-48 h, cytosolic fractions): unchanged; XIAP level (LTED cells [1]; LTED cells, FTS 75 μM or estradiol): did not change; p21 level (LTED cells [1]; LTED cells, FTS 75 μM, from 4 h to 48 h): steady decrease; cell number ([2]; FTS alone, doses 25, 50, 75 and 100 μM): 14 % of control; caspase-8 changes (death receptor pathway) (LTED cells [3]; FTS-treated LTED cells): no substantial caspase-8 changes
CC[C@@H](C(=O)[C@@H](C)[C@@H](O)[C@H](C)[C@@H]1O[C@@H]([C@@H](CC)C(=O)O)CC[C@@H]1C)[C@H]1O[C@]2(C=C[C@@H](O)[C@]3(CC[C@@](C)([C@H]4CC[C@](O)(CC)[C@H](C)O4)O3)O2)[C@H](C)C[C@@H]1C [Salinomycin]	–	–	–	–	–	–	–	pIC50 (MCF-7 cells): 5.70
COc1cc(/C=C/C(=O)CC(=O)/C=C/c2ccc(O)c(OC)c2)ccc1O [curcumin]	–	–	–	–	–	–	–	concentration at which initial effects in reducing cell number were observed ([2]; dose response, preliminary studies): 250 nM; concentration showing effects in reducing cell number, later studies ([2]; later studies): 125 nM
COC(=O)C[C@H](NC(=O)[C@H](C)NC(=O)[C@@H](NC(=O)OCc1ccccc1)C(C)C)C(=O)CF [z-VAD-fmk] (Cbz-Val-Ala-Asp(OMe)-CH2F)	–	–	–	–	–	–	–	effect on FTS-induced apoptosis (LTED cells [3]; LTED cells, FTS plus increasing concentrations of pan-caspase inhibitor): blocked
T-DM1	–	–	–	–	–	–	induced apoptosis	–
